In patent US20200008426A1, “ACTIVE COMPOUND COMBINATIONS” (BAYER AKTIENGESELLSCHAFT, priority 2017, published 2020):

Columns and labels:
[1] = LogP by HPLC on reversed phase columns (EEC directive 79/831 Annex V.A8); conditions: for LogP [a] / LogP [b]: LC-UV; for LogP [a]: acidic range, 0.1% formic acid in water and acetonitrile; for LogP [b]: neutral range, 0.001 molar ammonium acetate in water and acetonitrile
Method: Measurement of LogP values was performed according to EEC directive 79/831 Annex V.A8 by HPLC (High Performance Liquid Chromatography) on reversed phase columns with the following methods:
Lambda-max-values were determined using UV-spectra from 200 nm to 400 nm and the peak values of the chromatographic signals.

Alternaria solani = assay: In vivo preventive test on Alternaria (tomatoes); conditions: Table A2, 3 days after inoculation
Method: The plants are then placed in an incubation cabinet at approximately 20° C. and a relative atmospheric humidity of 100%.
The test is evaluated 3 days after the inoculation.

Phakopsora pachyrhizi = assay: In vivo preventive test on Phakopsora (soybeans); conditions: Table C2, 7 days after inoculation

Q: With `CC(O)(Cn1cncn1)c1ccc(Oc2ccc(Cl)cc2F)nc1C(F)(F)F` (stereo not shown) [I.89] as the compound, how does the “LogP [a]” value ([1]; Table 1, formula (I)) read?
A: Its value is 3.15^[a].

Q: Which “LogP [a]” value ([1]; Table 1, formula (I)) does the source give for `CC(O)(Cn1cncn1)c1ccc(Oc2ccc(C(F)F)cc2)nc1Cl` (stereo not shown) [I.39] here?
A: The value was 2.41^[a].

Q: With `OC(Cn1cncn1)(c1ccc(Oc2ccc(Br)cc2)nc1C(F)(F)F)C1CC1` (stereo not shown) [I.81, 1-[6-(4-bromophenoxy)-2-(trifluoromethyl)pyridin-3-yl]-1-cyclopropyl-2-(1H-1,2,4-triazol-1-yl)ethanol] as the compound, how does the chromatographic logP ([1]; reversed-phase HPLC column) read?
A: Its chromatographic logP is 3.7.

Q: With `O=C(NCCc1ncc(C(F)(F)F)cc1Cl)c1ccccc1C(F)(F)F` [2.005 fluopyram, fluopyram] as the compound, how does the pest or weed control at 5 ppm (Alternaria solani; Alternaria solani, 72 h, 5 ppm a.i., read-out: Efficacy in % found) read?
A: Its pest or weed control at 5 ppm is 53%.

Q: What about the pest or weed control at 10 ppm (Alternaria solani; Alternaria solani, 72 h, 10 ppm a.i., read-out: Efficacy in % found) of the same compound?
A: Its pest or weed control at 10 ppm is 61%.

Q: What about the pest or weed control at 20 ppm (Alternaria solani; Alternaria solani, 72 h, 20 ppm a.i., read-out: Efficacy in % found) of the same compound?
A: Its pest or weed control at 20 ppm is 84%.

Q: Which “LogP [a]” value ([1]; Table 2, formula (V)) does the source give for `O=C(c1ccc(Oc2ccc(C(F)(F)F)cc2)nc1C(F)(F)F)C1CC1` [V.39] here?
A: The value was 4.37^[a].

Q: With `OC(Cn1cncn1)(c1ccc(Oc2ccc(Br)cc2)nc1C(F)(F)F)C(F)(F)F` (stereo not shown) [I.85] as the compound, how does the “LogP [a]” value ([1]; Table 1, formula (I)) read?
A: Its value is 3.48^[a].

Q: For `OC(Cn1cncn1)c1ccc(Oc2ccc(F)cc2F)nc1Cl` (stereo not shown) [I.18], which “LogP [a]” value ([1]; Table 1, formula (I)) is on record?
A: Its value is 2.18^[a].

Q: Which “LogP [a]” value ([1]; Table 1, formula (I)) does the source give for `OC(Cn1cncn1)c1ccc(Oc2ccc(Cl)cc2)nc1F` (stereo not shown) [I.41] here?
A: The value was 2.23^[a].

Q: For `CC(O)(Cn1cncn1)c1cnc(Oc2ccc(Cl)cc2)cc1C(F)F` (stereo not shown) [I.64], which “LogP [a]” value ([1]; Table 1, formula (I)) is on record?
A: The value was 2.68^[a].

Q: Which “LogP [a]” value ([1]; Table 1, formula (I)) does the source give for `CC(O)(Cn1cncn1)c1ccc(Oc2ccccc2)nc1Cl` (stereo not shown) [I.07] here?
A: The value was 2.14.

Q: What about the “LogP [b]” value ([1]; Table 1, formula (I)) of the same compound?
A: Its value is 2.09.

Q: For `FC(F)(F)c1nc(Oc2ccc(S(F)(F)(F)(F)F)cc2)ccc1C1(C2CC2)CO1` (stereo not shown) [IX.09], which “LogP [a]” value ([1]; Table 5, formula (IX)) is on record?
A: The value was 5.22^[a].

Q: For `OC(Cn1cncn1)c1ccc(Oc2ccc(OC(F)(F)F)cc2)nc1C(F)(F)F` (stereo not shown) [I.79], which “LogP [a]” value ([1]; Table 1, formula (I)) is on record?
A: The value was 2.89^[a].

Q: Which “LogP [a]” value ([1]; Table 1, formula (I)) does the source give for `CC(O)(Cn1cncn1)c1cnc(Oc2ccc(Cl)cc2)cc1Cl` (single isomer, unassigned) [I.54] here?
A: The value was 2.53^[a].

Q: With `COc1ccc(Oc2ccc(C(C)(O)Cn3cncn3)c(Cl)n2)c(Cl)c1` (stereo not shown) [I.31] as the compound, how does the “LogP [a]” value ([1]; Table 1, formula (I)) read?
A: The value was 2.56^[a].

Q: With `CC(O)(Cn1cncn1)c1cnc(Oc2ccc(Cl)cc2)cc1C(F)(F)F` (single isomer, unassigned) [I.45] as the compound, how does the “LogP [a]” value ([1]; Table 1, formula (I)) read?
A: The value was 2.84^[a].

Q: With `OC(Cn1cncn1)c1cnc(Oc2ccc(Br)cc2)cc1C(F)(F)F` (stereo not shown) [I.48] as the compound, how does the “LogP [a]” value ([1]; Table 1, formula (I)) read?
A: The value was 2.75^[a].

Q: Which “LogP [a]” value ([1]; Table 1, formula (I)) does the source give for `OC(Cn1cncn1)c1ccc(Oc2ccc(Cl)cc2Cl)nc1Cl` (stereo not shown) [I.23] here?
A: Its value is 2.75^[a].

Q: With `OC(Cn1cncn1)c1cnc(Oc2ccc(Cl)cc2)cc1C(F)F` (stereo not shown) [I.94] as the compound, how does the “LogP [a]” value ([1]; Table 1, formula (I)) read?
A: The value was 2.13^[a].

Q: For `Cc1cc(Cl)ccc1Oc1ccc(C(C)(O)Cn2cncn2)c(Cl)n1` (stereo not shown) [I.28], which “LogP [a]” value ([1]; Table 1, formula (I)) is on record?
A: The value was 2.94^[a].

Q: For `OC(Cn1cncn1)c1ccc(Oc2ccc(F)cc2)nc1Cl` (stereo not shown) [I.17], which “LogP [a]” value ([1]; Table 1, formula (I)) is on record?
A: The value was 2.08^[a].

Q: Which “LogP [a]” value ([1]; Table 1, formula (I)) does the source give for `OC(Cn1cncn1)c1cnc(Oc2ccc(C(F)(F)F)cc2)cc1C(F)(F)F` (single isomer, unassigned) [I.72] here?
A: The value was 2.86^[a].

Q: For `CC(=O)c1cnc(Oc2ccc(Cl)cc2)cc1Cl` [V.09], which “LogP [a]” value ([1]; Table 2, formula (V)) is on record?
A: Its value is 3.52.

Q: And the “LogP [b]” value ([1]; Table 2, formula (V))?
A: Its value is 3.42.

Q: Which “LogP [a]” value ([1]; Table 2, formula (V)) does the source give for `CC(=O)c1ccc(Oc2ccc(C(F)F)cc2)nc1C(F)(F)F` [V.32] here?
A: Its value is 3.26^[a].

Q: Which “LogP [a]” value ([1]; Table 2, formula (V)) does the source give for `CC(=O)c1ccc(Oc2ccc(Cl)cc2)nc1Cl` [V.26] here?
A: Its value is 3.45^[a].

Q: With `OC(Cn1cncn1)c1ncc(Oc2ccccc2)cc1Cl` (stereo not shown) [I.22] as the compound, how does the “LogP [a]” value ([1]; Table 1, formula (I)) read?
A: The value was 2.01^[a].

Q: With `OC(Cn1cncn1)c1ccc(Oc2ccc(Cl)cc2F)nc1C(F)(F)F` (stereo not shown) [I.90] as the compound, how does the “LogP [a]” value ([1]; Table 1, formula (I)) read?
A: Its value is 2.88^[a].

Q: Which results are given for `CC(=O)c1cnc(Oc2ccccc2)cc1Cl` [V.08]?
A: LogP [a] ([1]; Table 2, formula (V)): 2.94; LogP [b] ([1]; Table 2, formula (V)): 2.86

Q: For `Cc1nn(C)c(F)c1C(=O)Nc1ccccc1C(C)CC(C)C` (stereo not shown) [2.017 penflufen, penflufen], which “Efficacy in % found” value (Phakopsora pachyrhizi; 5 ppm a.i.) is on record?
A: Its value is 8%.

Q: And the “Efficacy in % found” value (Phakopsora pachyrhizi; 10 ppm a.i.)?
A: The value was 43%.

Q: What about the “Efficacy in % found” value (Phakopsora pachyrhizi; 20 ppm a.i.) of the same compound?
A: Its value is 83%.

Q: What about the “Efficacy in % found” value (Alternaria solani; 5 ppm a.i.) of the same compound?
A: The value was 11%.

Q: And the “Efficacy in % found” value (Alternaria solani; 10 ppm a.i.)?
A: The value was 26%.

Q: What about the “Efficacy in % found” value (Alternaria solani; 20 ppm a.i.) of the same compound?
A: Its value is 47%.

Q: Which “LogP [a]” value ([1]; Table 1, formula (I)) does the source give for `OC(Cn1cncn1)c1cnc(Oc2ccc(C(F)(F)F)cc2)cc1C(F)(F)F` (single isomer, unassigned) [I.92] here?
A: Its value is 2.86^[a].

Q: With `CC(O)(Cn1cncn1)c1cnc(Oc2ccc(Cl)cc2)cc1Cl` (single isomer, unassigned) [I.53] as the compound, how does the “LogP [a]” value ([1]; Table 1, formula (I)) read?
A: The value was 2.53^[a].
